In brackets after ≈: the same amount, converted by molar mass. Several values for one entry are separate records, joined by “and”; a condition that tells them apart may be missing. Equal values may be shown once. Read-outs that look alike come from different tables or passages of the source. Peptide text beside a SMILES is read from it.
What was measured:
[1] = tested on: MDR clinical isolates of E. coli (Ec1, Ec2, EC001, EC002, EC003); assay type: cell-based, Escherichia coli; conditions: MHB2
Description: The minimum inhibitory concentration (MIC) of synthetic peptides was determined using the broth microdilution method in cation-adjusted Mueller-Hinton broth (MHB2 – Sigma-Aldrich, St. Louis, MO, United States), according to the recommendations of the Clinical and Laboratory Standards Institute ([CLSI, 2012]), against four reference strains, namely, P. aeruginosa ATCC 27853, E. coli ATCC 25922, S. aureus ATCC 25923 and Enterococcus faecalis ATCC 29212. MIC values of peptide 3.1-PP4 were also determined against MDR clinical isolates of P. aeruginosa (PA002, PA004, Pa3, Pa4), E. coli (Ec1, Ec2, EC001, EC002, EC003) and K. pneumoniae (KP004, KP007, KP010). The peptides were tested in the concentration range of 1–1024 μg/mL. The minimum bactericidal concentration (MBC) was determined as previously reported ([Bessa et al., 2018]).
In view of the above results, peptide conjugate 3.1-PP4 was selected for further investigation of its activity against MDR isolates of three Gram-negative bacterial species, namely, P. aeruginosa (four isolates), E. coli (five isolates), and K. pneumoniae (four isolates), whose antimicrobial resistance patterns are provided in the Supplementary Table S1. MDR isolates of K. pneumoniae were included in this analysis given (i) the high prevalence of K. pneumoniae in HAI ([Zheng et al., 2017]), (ii) that K. pneumoniae isolates used are carbanepem-resistant strains of an Enterobacteriaceae species, meaning that they are class 1 priority pathogens for the research and development of new antibiotics according to the WHO ([WHO, 2017]), and (iii) K. pneumoniae bacteria are usually better biofilm producers than the other Enterobacteriaceae species used, E. coli ([Reisner et al., 2006]). MIC values obtained are shown in Table 3, and confirm peptide’s 3.1-PP4 potent action against Gram-negative bacteria, including MDR isolates, with a selectivity index (SI), i.e., ratio of IC50 values for mammalian vs. bacterial cells, ranging from ca. 9–69. In fact, for P. aeruginosa and E. coli, MIC against MDR isolates were in the same range, or below, of those previously found for ATCC reference strains (Table 2). For K. pneumoniae, MIC values ranged between 1 and 4 μM, which is remarkable.

[2] = tested on: preformed biofilms of MDR P. aeruginosa isolates; assay: Effect on 24 h preformed biofilms (OD600 of planktonic phase); assay type: cell-based, Pseudomonas aeruginosa; conditions: 20 × MIC, vs non-treated biofilm
Description: The efficacy of peptide 3.1-PP4 on 24 h preformed biofilms of PA002, PA004, KP004, KP007, and KP010 was also evaluated ([Gomes et al., 2014]). Briefly, biofilms were grown in TSB from a starting inoculum of 1 × 10^6 CFU/mL in 96-well microtiter plates. […] The optical density at 600 nm (OD600) was measured at time 0 and after incubation for 24 h at 37°C. The reduction in the biofilm proliferation was calculated in comparison to the respective non-treated biofilms. Two independent experiments were performed in triplicate.
In the case of control biofilms, the second 24 h growth period occurred in the absence of the peptide. Based on the apparent higher efficiency of peptide 3.1-PP4 to inhibit the formation of K. pneumoniae than P. aeruginosa biofilms, only two MDR isolates of the latter were included in this assay, whereas three MDR K. pneumoniae were tested. Optical density of the planktonic phase, as a measure of biofilm proliferation, was reduced in all peptide-treated biofilms, ranging from 3 to 21% reduction on P. aeruginosa isolates, and from 34 to 56% reduction on K. pneumoniae isolates (Table 4).

[3] = tested on: HFF-1 cells; assay: Collagen production, Picrosirius Red staining; assay type: cell-based, human; conditions: HFF-1, 72 h incubation, Sirius Red, absorbance 540 nm; concentrations representative of the MIC values; compared with C16-PP4
Description: Collagen production was assessed as described by [Remoué et al. (2013)]. Briefly, HFF-1 cells were seeded and incubated as described previously for the cytotoxicity assay. After the 72 h incubation with peptides, cells were washed with PBS and the Sirius Red dye in picric acid solution (Sigma-Aldrich, St. Louis, MO, United States) was applied to each well. Cells were incubated at 25°C for 1 h under orbital shaking. Dye was then rejected, and cells were washed twice with absolute ethanol (AGA). Once the wells were dry, 1 M aqueous NaOH (Sigma-Aldrich, St. Louis, MO, United States) was added, and absorbance read at 540 nm (Biotek PowerWave XS).
The CBP-AMP conjugates herein addressed include a collagenesis-inducing motif, the amino acid sequence KTTKS whose N-palmitoylated derivative is the well-known “Palmitoyl pentapeptide-4” (C16-PP4) that emerged in 2000 under the commercial name Matrixyl as an active ingredient in skin rejuvenating cosmetics. […] To this end, collagen produced by HFF-1 human fibroblasts was determined by the previously validated Picrosirius Red Staining Protocol ([Remoué et al., 2013]), taking C16-PP4 as reference CBP. […] Results are presented in Figure 3, and expressed as the ratio between collagen produced and the number of viable cells, as the test peptides had different cytotoxicity against the HFF-1 cell line. […]

MIC ([1]; MDR E. coli isolate EC001): 2 μg/mL and 1 μM | MIC ([1]; MDR E. coli isolate EC002): 2 μg/mL and 1 μM | MIC ([1]; MDR E. coli isolate EC003): 1 µg/mL (≈ 0.515 µM) | MIC ([1]; MDR E. coli isolate Ec1): 4 µg/mL (≈ 2.06 µM) | MIC ([1]; MDR E. coli isolate Ec2): 2 μg/mL and 1 μM
Structure (SMILES): CC(C)C[C@H](NC(=O)[C@H](Cc1c[nH]c2ccccc12)NC(=O)[C@H](CCCCN)NC(=O)[C@H](CC(C)C)NC(=O)[C@H](CC(C)C)NC(=O)[C@H](CCCCN)NC(=O)[C@@H](N)CCCCN)C(=O)N[C@@H](CC(C)C)C(=O)N[C@@H](CCCCN)C(=O)N[C@@H](CC(C)C)C(=O)N[C@@H](CC(C)C)C(=O)N[C@@H](CCCCN)C(=O)N[C@H](C(=O)N[C@H](C(=O)N[C@@H](CCCCN)C(=O)N[C@@H](CO)C(N)=O)[C@@H](C)O)[C@@H](C)O [Peptide 3.1-PP4] (H-KKLLKWLLKLLKTTKS-NH2; N-terminus assumed)
% reduction in biofilm proliferation upon treatment ([2]; isolate PA002, 24 h preformed biofilm): 2.8% | % reduction in biofilm proliferation upon treatment ([2]; isolate PA004, 24 h preformed biofilm): 21% | collagenesis-inducing behavior (collagen produced / number of viable cells) [3]: not statistically different from that of Matrixyl (C16-PP4)

Reference: PMC6710338, “Turning a Collagenesis-Inducing Peptide Into a Potent Antibacterial and Antibiofilm Agent Against Multidrug-Resistant Gram-Negative Bacteria” (Frontiers in Microbiology, 2019)
